Source: PMC12340637, “Transport of Small Aliphatic Amines by Polyspecific Solute Carriers: Deciphering Structure–Function Relationships” (ACS Pharmacology & Translational Science, 2025)

Tests used:
MATE2-K (SLC47A2) = MATE2-K (SLC47A2) (Homo sapiens, UniProt Q86VL8)
OCT2 (SLC22A2) = biological target: T1, OCT2 (SLC22A2) (Homo sapiens, UniProt O15244); assay: Cellular uptake into OCT2-overexpressing HEK293 cells vs EV control cells (HPLC-MS/MS); settings: label = favoured enantiomer
T1 sequence (O15244 1-555): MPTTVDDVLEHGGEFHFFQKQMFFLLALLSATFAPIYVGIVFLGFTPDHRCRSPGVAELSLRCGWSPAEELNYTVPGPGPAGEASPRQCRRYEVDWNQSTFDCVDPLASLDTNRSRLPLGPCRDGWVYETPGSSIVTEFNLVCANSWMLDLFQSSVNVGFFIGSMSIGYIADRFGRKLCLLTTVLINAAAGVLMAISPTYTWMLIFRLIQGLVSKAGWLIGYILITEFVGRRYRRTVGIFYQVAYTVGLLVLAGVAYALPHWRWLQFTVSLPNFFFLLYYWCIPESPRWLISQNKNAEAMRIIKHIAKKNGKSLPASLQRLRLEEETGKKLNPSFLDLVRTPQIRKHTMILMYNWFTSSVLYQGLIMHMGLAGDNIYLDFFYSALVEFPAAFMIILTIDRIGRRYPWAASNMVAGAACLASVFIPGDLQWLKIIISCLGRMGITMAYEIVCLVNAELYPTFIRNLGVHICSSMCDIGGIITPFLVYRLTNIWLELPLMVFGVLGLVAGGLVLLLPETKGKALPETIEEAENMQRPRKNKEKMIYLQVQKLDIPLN

OCT1 (SLC22A1) = biological target: T2, OCT1 (SLC22A1) (Homo sapiens, UniProt O15245); assay: Cellular uptake into OCT1-overexpressing HEK293 cells vs EV control cells (HPLC-MS/MS); settings: label = favoured enantiomer
T2 sequence (O15245 1-554): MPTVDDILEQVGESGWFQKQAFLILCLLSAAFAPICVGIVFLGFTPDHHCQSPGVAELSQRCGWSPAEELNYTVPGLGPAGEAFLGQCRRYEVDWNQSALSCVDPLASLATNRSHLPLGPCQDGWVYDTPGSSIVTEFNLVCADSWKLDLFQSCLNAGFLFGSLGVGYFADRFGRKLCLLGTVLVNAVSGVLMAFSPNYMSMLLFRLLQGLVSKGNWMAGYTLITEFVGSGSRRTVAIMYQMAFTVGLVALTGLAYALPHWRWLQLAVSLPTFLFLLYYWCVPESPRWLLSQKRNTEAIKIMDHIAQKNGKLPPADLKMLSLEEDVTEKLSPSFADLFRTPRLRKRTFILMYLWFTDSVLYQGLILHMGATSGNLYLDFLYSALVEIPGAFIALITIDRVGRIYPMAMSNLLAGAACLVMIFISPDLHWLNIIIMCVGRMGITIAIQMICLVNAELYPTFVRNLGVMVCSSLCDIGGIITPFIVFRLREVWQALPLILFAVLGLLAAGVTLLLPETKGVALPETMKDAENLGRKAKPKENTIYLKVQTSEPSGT

OCT3 (SLC22A3) = biological target: T3, OCT3 (SLC22A3) (Homo sapiens, UniProt O75751); assay: Cellular uptake into OCT3-overexpressing HEK293 cells vs EV control cells (HPLC-MS/MS); settings: label = favoured enantiomer
T3 sequence (O75751 1-556): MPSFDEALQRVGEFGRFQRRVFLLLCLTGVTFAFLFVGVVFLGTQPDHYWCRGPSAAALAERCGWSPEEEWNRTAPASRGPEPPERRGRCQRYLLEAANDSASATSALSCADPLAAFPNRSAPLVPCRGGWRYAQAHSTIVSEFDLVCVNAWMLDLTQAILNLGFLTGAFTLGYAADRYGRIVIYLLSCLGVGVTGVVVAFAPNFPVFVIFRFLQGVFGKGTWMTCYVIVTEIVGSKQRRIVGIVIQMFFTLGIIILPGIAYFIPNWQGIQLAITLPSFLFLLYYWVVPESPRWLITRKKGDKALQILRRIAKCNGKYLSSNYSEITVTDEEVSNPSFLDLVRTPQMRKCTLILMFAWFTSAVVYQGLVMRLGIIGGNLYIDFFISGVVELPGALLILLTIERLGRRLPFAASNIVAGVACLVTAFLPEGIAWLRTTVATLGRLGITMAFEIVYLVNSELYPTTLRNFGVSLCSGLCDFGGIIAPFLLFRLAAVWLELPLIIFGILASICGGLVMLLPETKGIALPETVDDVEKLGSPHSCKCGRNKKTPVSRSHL

Chain of MATE2-K (SLC47A2) (Q86VL8 1-566 isoform Q86VL8-3): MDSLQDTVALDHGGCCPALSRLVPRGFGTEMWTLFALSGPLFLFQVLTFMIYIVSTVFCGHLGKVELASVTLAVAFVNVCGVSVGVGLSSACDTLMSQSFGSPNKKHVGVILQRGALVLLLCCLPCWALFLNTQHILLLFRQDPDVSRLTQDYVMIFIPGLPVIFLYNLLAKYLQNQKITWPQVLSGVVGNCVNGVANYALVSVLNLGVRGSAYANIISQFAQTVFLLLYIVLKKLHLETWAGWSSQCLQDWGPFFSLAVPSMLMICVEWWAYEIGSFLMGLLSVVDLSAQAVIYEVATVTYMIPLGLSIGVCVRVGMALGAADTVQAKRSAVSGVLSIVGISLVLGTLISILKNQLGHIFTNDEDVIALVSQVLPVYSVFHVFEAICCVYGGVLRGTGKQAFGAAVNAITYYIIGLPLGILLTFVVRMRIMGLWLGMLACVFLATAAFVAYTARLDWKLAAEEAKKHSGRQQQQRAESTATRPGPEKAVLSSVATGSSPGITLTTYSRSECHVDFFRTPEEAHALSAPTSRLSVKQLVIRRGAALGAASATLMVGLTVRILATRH

stereoselectivity MATE2K (uptake ratio of the more strongly transported enantiomer divided by that of the other) (MATE2-K (SLC47A2)): 1.1-fold for (S)
stereoselectivity OCT2 (uptake ratio of the more strongly transported enantiomer divided by that of the other) (OCT2 (SLC22A2)): 1.2-fold for (S)
stereoselectivity OCT1 (uptake ratio of the more strongly transported enantiomer divided by that of the other) (OCT1 (SLC22A1)): 1.3-fold for (S)
stereoselectivity OCT3 (uptake ratio of the more strongly transported enantiomer divided by that of the other) (OCT3 (SLC22A3)): 1.4-fold for (S)
SMILES: C[C@H](N)CN [(S)-(−)-1,2-diaminopropane]
